Measured values from patent US9738648B2, “Pyridines, pyrimidines, and pyrazines, as BTK inhibitors and uses thereof” (Merck Patent GmbH, priority 2013, dated 2017).
pIC50: −log10 of the molar value.

Columns and labels:
[1] = system: anti-IgM-induced expression of CD69 in freshly isolated human peripheral blood mononuclear cells (PBMCs); assay: Assay B: inhibition of anti-IgM-induced expression of CD69 on CD19 positive cells (B cells) in human PBMCs; assay type: cell-based; conditions: PBMC, 1 h pre-treatment, overnight anti-human IgM stimulation, CD69 on CD19 positive cells by flow cytometry, read-out: Assay B (mol/L (M))
Procedure: Btk is critical for mediating the signalling of B cell antigen receptor (BCR) after anti-IgM stimulation. Based on this principle, a functional cell-based assay was established to determine the potency of compounds at inhibiting anti-IgM-induced expression of CD69, a downstream BCR signalling event, in freshly isolated human peripheral blood mononuclear cells (PBMCs). In the assay, a 90 μl PBMC suspension containing 2.5×10^5 cells was pre-treated with 10 μl of test compound at various concentrations for an hour, and then incubated overnight (approximately 16-18 hours) with 5 μl 420 μg/ml affiniPure F(ab′)2 fragment goat anti-human IgM Fc fragment per well (Dianova, Cat. No.: 109-006-129). After the incubation, the cells were washed and immunostained with an APC labelled mouse anti-human CD69 (BD Biosciences; clone: FN50), a PerCP-Cy5.5 labelled mouse anti-human CD19 (BD Biosciences; clone: SJ25C1) and a FITC-labelled mouse anti-human CD3 (BD Biosciences; clone: HIT3a), and fixed for flow cytometric analysis of CD69 expression on CD19 positive cells (B cells). The percentage of CD69 expressing CD19 positive cells was plotted against the concentrations of test compounds to obtain a concentration response curve, and calculate an IC50 value as a measure of the potency of test compounds in the assay.

[2] = molecular target: T1, full-length human BTK (Homo sapiens, UniProt Q06187); assay: BTK IC50 Enzyme Assay (Assay A), microfluidic off-chip mobility shift kinase assay; assay type: biochemical; conditions: kinKDR peptide substrate, 90 min at 27° C.
T1 construct: 2.5× stocks of full-length human BTK (08-080) from CarnaBio USA, Inc; purchased CarnaBio USA, Inc., Natick, Mass; 08-080
T1 sequence (Q06187 whole entry): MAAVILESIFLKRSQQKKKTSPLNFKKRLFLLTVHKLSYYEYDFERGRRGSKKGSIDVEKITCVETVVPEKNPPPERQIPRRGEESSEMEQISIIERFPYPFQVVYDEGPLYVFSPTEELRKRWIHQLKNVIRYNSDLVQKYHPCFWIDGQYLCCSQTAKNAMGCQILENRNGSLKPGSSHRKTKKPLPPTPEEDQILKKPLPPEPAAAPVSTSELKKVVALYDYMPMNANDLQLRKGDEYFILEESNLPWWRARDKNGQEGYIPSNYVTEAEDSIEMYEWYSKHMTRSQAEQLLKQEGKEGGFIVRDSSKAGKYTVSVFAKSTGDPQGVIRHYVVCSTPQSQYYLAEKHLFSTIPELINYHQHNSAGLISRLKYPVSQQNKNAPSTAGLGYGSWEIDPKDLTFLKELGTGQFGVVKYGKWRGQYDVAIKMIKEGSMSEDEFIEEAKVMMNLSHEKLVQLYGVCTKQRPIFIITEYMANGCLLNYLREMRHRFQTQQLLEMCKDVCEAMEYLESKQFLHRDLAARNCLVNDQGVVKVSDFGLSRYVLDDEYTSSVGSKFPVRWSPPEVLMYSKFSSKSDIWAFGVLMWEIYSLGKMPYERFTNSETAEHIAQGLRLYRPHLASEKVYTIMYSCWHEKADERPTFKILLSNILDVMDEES
Procedure: BTK IC50 Enzyme Assay (Assay A)
The following describes a microfluidic, off-chip mobility shift kinase assay used to measure inherent potency of compounds against BTK enzyme.
2.5× stocks of full-length human BTK (08-080) from CarnaBio USA, Inc., Natick, Mass., 1.6×ATP and appropriate kinKDR peptide substrate (FITC-AHA-EEPLYWSFPAKKK10 NH2) were prepared in kinase reaction buffer consisting of 25 mM MgCl2, 0.015% Brij-35 (30%), 100 mM Hepes, pH 7.5, and 10 mM DTT.
5 uL of enzyme buffer and 7.5 uL of ATP/kinKDR peptide substrate mix were added to Matrix (#115304) 384-well, sterile, polypropylene plates (Thermo Fisher Scientific, 15 Hudson, N.H.) with 125 nL of serially diluted compounds prepared in 100% DMSO, and incubated for 90 min. at 27° C. Following the incubation period, reactions were stopped by adding 60 uL stop buffer consisting of 100 mM Hepes, pH 7.5, 0.015% Brij-35 (30%), 0.277% Coating Reagent #3 (Caliper Life Sciences, Mountain View, Calif.), 5% DMSO. Stopped reactions were monitored at −2 PSI, −3000 V/−700 V in a LabChip 3000 plate 20 reader from Caliper Life Sciences, a PerkinElmer Company (Hopkinton, Mass.), and the activity was measured by off-chip mobility shift assay measuring the charge/mass difference between substrate and product resulting from peptide phosphorilation. IC50 and efficacy were determined by plotting log [Inhibitor] vs. % Activity in GeneData Screener (Basel, Switzerland).

SMILES	pIC50 [2]	IC50 [1]
CN(C)C/C=C/C(=O)N1CC(n2ccc3ncc(-c4ccc(Oc5ccccc5)cc4)cc32)C1 [Compound 13, (E)-4-(dimethylamino)-1-(3-(6-(4-phenoxyphenyl)-1H-pyrrolo[3,2-b]pyridin-1-yl)azetidin-1-yl)but-2-en-1-one]	> 7.00	1e-07 to 1e-06 M
O=C(CCCCCNc1ccc([N+](=O)[O-])c2nonc12)NCCN1CCN(C/C=C/C(=O)N2CC(n3ccc4ncnc(Oc5ccc(Oc6ccccc6)cc5)c43)C2)CC1 [Compound 31, (E)-6-((7-nitrobenzo[c][1,2,5]oxadiazol-4-yl)amino)-N-(2-(4-(4-oxo-4-(3-(4-(4-phenoxyphenoxy)-5H-pyrrolo[3,2-d]pyrimidin-5-yl)azetidin-1-yl)but-2-en-1-yl)piperazin-1-yl)ethyl)hexanamide]	> 7.00	1e-06 to 5e-06 M
N#CN1CC(Cn2ccc3ncnc(Oc4ccc(Oc5ccccc5)cc4)c32)C1 [Compound 66, 3-[[4-(4-phenoxyphenoxy)-5H-pyrrolo[3,2-d]pyrimidin-5-yl]methyl]azetidine-1-carbonitrile]	5.30 to 6.00	
CN(C#N)[C@H]1CC[C@H](n2ccc3ncnc(Oc4ccc(Oc5ccccc5)cc4)c32)CC1 [Compound 70, (1R,4R)—N-cyano-N-methyl-4-[4-(4-phenoxyphenoxy)-5H-pyrrolo[3,2-d]pyrimidin-5-yl]cyclohexan-1-amine]	6.00 to 7.00	
NCCOCCOCCOCCOCCC(=O)NCCN1CCN(C/C=C/C(=O)N2CCC(n3ccc4ncnc(Oc5ccc(Oc6ccccc6)cc5)c43)CC2)CC1 [Compound 73, (E)-1-amino-N-(2-(4-(4-oxo-4-(4-(4-(4-phenoxyphenoxy)-5H-pyrrolo[3,2-d]pyrimidin-5-yl)piperidin-1-yl)but-2-en-1-yl)piperazin-1-yl)ethyl)-3,6,9,12-tetraoxapentadecan-15-amide]	> 7.00	
CC1=CC(C)=[N+]2C1=C(c1ccc(NC(=S)NCCOCCOCCOCCOCCC(=O)NCCN3CCN(C/C=C/C(=O)N4CCC(n5ccc6ncnc(Oc7ccc(Oc8ccccc8)cc7)c65)CC4)CC3)cc1)c1c(C)cc(C)n1[B-]2(F)F [Compound 74, (E)-1-((4-(5,5-difluoro-1,3,7,9-tetramethyl-5H-414,514-dipyrrolo[1,2-c:2′,1′-f][1,3,2]diazaborinin-10-yl)phenyl)amino)-N-(2-(4-(4-oxo-4-(4-(4-(4-phenoxyphenoxy)-5H-pyrrolo[3,2-d]pyrimidin-5-yl)piperidin-1-yl)but-2-en-1-yl)piperazin-1-yl)ethyl)-1-thioxo-5,8,11,14-tetraoxa-2-azaheptadecan-17-amide]	6.00 to 7.00	
N#CN1CC[C@@H](n2ccc3ncnc(Oc4ccc(Oc5ccc(F)cc5F)cc4)c32)C1 [Compound 75]	< 5.30	
N#CN1CC[C@H](n2ccc3ncnc(Oc4ccc(Oc5ccc(F)cc5F)cc4)c32)C1 [Compound 76]	6.00 to 7.00	

The next lines start with results.

pIC50 [2]	SMILES	IC50 [1]
> 7.00	C=CC(=O)N1CC(n2ccc3ncnc(Oc4ccc(Oc5ccccc5)cc4)c32)C1 [Compound 3, 1-(3-(4-(4-phenoxyphenoxy)-5H-pyrrolo[3,2-d]pyrimidin-5-yl)azetidin-1-yl)prop-2-en-1-one]	< 1e-07 M
> 7.00	C=CC(=O)N[C@H]1C[C@@H](n2ccc3ncnc(Oc4ccc(Oc5ccccc5)cc4)c32)C1 [Compound 10, N-(cis-3-(4-(4-phenoxyphenoxy)-5H-pyrrolo[3,2-d]pyrimidin-5-yl)cyclobutyl)acrylamide]	1e-07 to 1e-06 M
> 7.00	N#CN1CCC(n2ccc3ncnc(Oc4ccc(Oc5ccccc5)cc4)c32)C1 (stereo not shown) [Compound 60, 3-[4-(4-phenoxyphenoxy)-5H-pyrrolo[3,2-d]pyrimidin-5-yl]pyrrolidine-1-carbonitrile]	1e-07 to 1e-06 M
6.00 to 7.00	CN(C#N)[C@H]1C[C@H](n2ccc3ncnc(Oc4ccc(Oc5ccccc5)cc4)c32)C1 [Compound 67, (1R,3R)—N-cyano-N-methyl-3-[4-(4-phenoxyphenoxy)-5H-pyrrolo[3,2-d]pyrimidin-5-yl]cyclobutan-1-amine]	
5.30 to 6.00	N#CN1CC(n2ccc3ncnc(Oc4ccc(Oc5ccccc5)cc4)c32)C1 [Compound 68, 3-[4-(4-phenoxyphenoxy)-5H-pyrrolo[3,2-d]pyrimidin-5-yl]azetidine-1-carbonitrile]	
5.30 to 6.00	N#CN1CC2(CC(n3ccc4ncnc(Oc5ccc(Oc6ccccc6)cc5)c43)C2)C1 [Compound 69, 6-[4-(4-phenoxyphenoxy)-5H-pyrrolo[3,2-d]pyrimidin-5-yl]-2-azaspiro[3.3]heptane-2-carbonitrile]	
< 5.30	N#CN1CC[C@@H](n2ccc3ncnc(Oc4ccc(Oc5ccccc5)cc4)c32)C1 [Compound 71, (3R)-3-[4-(4-phenoxyphenoxy)-5H-pyrrolo[3,2-d]pyrimidin-5-yl]pyrrolidine-1-carbonitrile]	
> 7.00	N#CN1CC[C@H](n2ccc3ncnc(Oc4ccc(Oc5ccccc5)cc4)c32)C1 [Compound 72, (3S)-3-[4-(4-phenoxyphenoxy)-5H-pyrrolo[3,2-d]pyrimidin-5-yl]pyrrolidine-1-carbonitrile]	1e-07 to 1e-06 M
